Data as given in article PMC2925389, “Pre-Steady-State Kinetic Analysis of Truncated and Full-Length Saccharomyces cerevisiae DNA Polymerase Eta” (Journal of Nucleic Acids, 2010).

What was measured:
truncated yPolη = biological target: T1, truncated yPolη (Saccharomyces cerevisiae, UniProt Q04049); assay: pre-steady-state single-turnover nucleotide incorporation, rapid chemical quench; format: biochemical; details: 5 mM MgCl2, pH 7.5, 23°C
T1 construct: gene RAD30; catalytic core (polymerase domain) 1-513, lacks C-terminal residues 514-632; N-terminal tag MGSSH6SSGLVPRGSH
T1 sequence (Q04049 1-513): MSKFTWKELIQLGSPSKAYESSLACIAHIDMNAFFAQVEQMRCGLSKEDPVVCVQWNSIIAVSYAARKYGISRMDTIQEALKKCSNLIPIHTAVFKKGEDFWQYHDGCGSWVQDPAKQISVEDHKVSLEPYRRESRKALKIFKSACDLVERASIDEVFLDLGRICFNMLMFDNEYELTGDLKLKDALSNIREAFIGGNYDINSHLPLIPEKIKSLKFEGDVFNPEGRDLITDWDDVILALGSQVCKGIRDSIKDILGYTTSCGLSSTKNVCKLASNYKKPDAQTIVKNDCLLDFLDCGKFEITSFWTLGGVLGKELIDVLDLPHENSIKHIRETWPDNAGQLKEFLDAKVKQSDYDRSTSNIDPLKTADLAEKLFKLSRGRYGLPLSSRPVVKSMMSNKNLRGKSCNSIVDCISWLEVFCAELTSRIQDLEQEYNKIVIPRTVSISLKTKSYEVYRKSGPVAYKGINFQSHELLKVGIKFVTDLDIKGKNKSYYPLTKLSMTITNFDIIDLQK

full-length yPolη = biological target: T2, full-length yPolη (Saccharomyces cerevisiae, UniProt Q04049); assay: as above; format: biochemical; details: 5 mM MgCl2, pH 7.5, 23°C
T2 construct: gene RAD30; full-length, residues 1-632, expressed and purified from yeast
T2 sequence (Q04049 1-632): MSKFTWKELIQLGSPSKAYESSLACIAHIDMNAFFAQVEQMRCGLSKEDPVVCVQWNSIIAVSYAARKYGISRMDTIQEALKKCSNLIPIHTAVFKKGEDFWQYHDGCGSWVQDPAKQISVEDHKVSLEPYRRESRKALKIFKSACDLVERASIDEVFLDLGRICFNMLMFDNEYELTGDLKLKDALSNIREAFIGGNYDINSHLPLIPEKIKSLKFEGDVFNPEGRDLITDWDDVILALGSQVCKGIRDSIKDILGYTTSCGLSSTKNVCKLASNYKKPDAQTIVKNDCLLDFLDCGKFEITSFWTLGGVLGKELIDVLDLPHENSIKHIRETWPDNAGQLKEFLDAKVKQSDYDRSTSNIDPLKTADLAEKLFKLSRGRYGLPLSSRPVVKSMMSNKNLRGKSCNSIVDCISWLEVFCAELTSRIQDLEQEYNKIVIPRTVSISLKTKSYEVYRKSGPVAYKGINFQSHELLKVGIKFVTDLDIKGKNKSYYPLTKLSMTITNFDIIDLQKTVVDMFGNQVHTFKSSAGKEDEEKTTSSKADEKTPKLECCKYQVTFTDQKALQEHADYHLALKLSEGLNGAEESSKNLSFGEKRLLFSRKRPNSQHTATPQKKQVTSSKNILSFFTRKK
Excerpt: pre-steady-state single-turnover nucleotide incorporation, rapid chemical quench on full-length yPolη

[1] = mismatched dNTP opposite template dA (D-1 21/41-mer DNA)
[2] = correct dNTP opposite template dA (D-1 21/41-mer DNA)

**Q.** With `Nc1ncnc2c1ncn2[C@H]1C[C@H](O)[C@@H](COP(=O)(O)OP(=O)(O)OP(=O)(O)O)O1` [dATP] as the compound, how does the Kd (truncated yPolη; correct dNTP opposite template dT (D-7 21/41-mer DNA)) read?
**A.** The Kd was 17 ± 3 µM.

**Q.** What about the Kd (full-length yPolη; [1]) of the same compound?
**A.** Its Kd is 156 ± 7 µM.

**Q.** What does the source list for `Nc1nc2c(ncn2[C@H]2C[C@H](O)[C@@H](COP(=O)(O)OP(=O)(O)OP(=O)(O)O)O2)c(=O)[nH]1` [dGTP]?
**A.** Kd (truncated yPolη; correct dNTP opposite template dC (D-8 21/41-mer DNA)): 6.8 ± 0.4 µM; Kd (full-length yPolη; [1]): 170 ± 40 µM

**Q.** For `Cc1cn([C@H]2C[C@H](O)[C@@H](COP(=O)(O)OP(=O)(O)OP(=O)(O)O)O2)c(=O)[nH]c1=O` [dTTP], which Kd (truncated yPolη; [2]) is on record?
**A.** Its Kd is 15 ± 2 µM.

**Q.** And the Kd (full-length yPolη; [2])?
**A.** Its Kd is 40 ± 10 µM.

**Q.** What does the source list for `Nc1ccn([C@H]2C[C@H](O)[C@@H](COP(=O)(O)OP(=O)(O)OP(=O)(O)O)O2)c(=O)n1` [dCTP]?
**A.** Kd (truncated yPolη; correct dNTP opposite template dG (D-6 21/41-mer DNA)): 11.2 ± 0.8 µM; Kd (full-length yPolη; [1]): 70 ± 10 µM
